# Test results as given in US20100298141A1, “SUBSTITUTED PYRIDINE N-OXIDE HERBICIDES” (E. I. DU PONT DE NEMOURS AND COMPANY, priority 2007, published 2010).
# Experiments:
# barnyardgrass = assay: Test A pre-/postemergence greenhouse test; assay type: in vivo, Echinochloa crus-galli; details: for Plant response rating, Barnyardgrass: 0 to 100 scale where 0 is no effect and 100 is complete control; for Barnyardgrass plant response rating: 0 to 100 scale
# Procedure, shortened: (§1)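 Each test compound, dissolved in a non-phytotoxic solvent mixture with surfactant, was sprayed directly onto seeded soil (loam/sand blend) and, at the same moment, onto seedlings carrying one to two leaves. Around ten greenhouse days later, plants were rated visually for injury relative to untreated controls.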
# velvetleaf = assay: Test A pre-/postemergence greenhouse test; assay type: in vivo, Abutilon theophrasti; details: for Plant response rating, Velvetleaf: 0 to 100 scale where 0 is no effect and 100 is complete control; for Velvetleaf plant response rating: 0 to 100 scale
# Procedure, shortened: as §1
# green foxtail = assay: Test C pre-/postemergence test; assay type: in vivo, Setaria viridis
# Description: (§2) Seeds of plant species selected from blackgrass (Alopecurus myosuroides), downy brome (Bromus tectorum), green foxtail (Setaria viridis), Italian ryegrass (Lolium multiflorum), wheat (Triticum aestivum), wild oat (Avena fatua), catchweed bedstraw (Galium aparine), Russian thistle (Salsola kali), […] (Cynodon dactylon), Surinam grass (Brachiaria decumbens), cocklebur (Xanthium strumarium), corn (Zea mays), crabgrass (Digitaria sanguinalis), woolly cupgrass (Eriochloa villosa), giant foxtail (Setaria faberii), Goosegrass (Eleusin indica), johnsongrass (Sorghum halepense), kochia (Kochia scoparia), lambsquarters (Chenopodium album), morningglory (Ipomoea coccinea), eastern black nightshade (Solanum ptycanthum), yellow nutsedge (Cyperus esculentus), pigweed (Amaranthus retroflexus), common ragweed (Ambrosia elation), soybean (Glycine max), common (oilseed) sunflower (Helianthus annuus), and velvetleaf (Abutilon theophrasti) were planted and treated preemergence with test chemicals formulated in a non-phytotoxic solvent mixture which included a surfactant. At the same time, plants selected from these crop and weed species and also winter barley (Hordeum vulgare), canarygrass (Phalaris minor), and chickweed (Stellaria media) were treated with postemergence applications of some of the test chemicals formulated in the same manner. Plants ranged in height from 2 to 18 cm (1- to 4-leaf stage) for postemergence treatments. […] At time of treatment, test pots were flooded to 3 cm above the soil surface, treated by application of test compounds directly to the paddy water, and then maintained at that water depth for the duration of the test. […] A dash (-) response means no test result.
# Italian ryegrass = assay: Test C pre-/postemergence test; assay type: in vivo, Lolium multiflorum
# Description: as §2
# [1] = Postemergence, 500 g ai/ha, 0 is no effect, 100 is complete control
# [2] = Preemergence, 125 g ai/ha, 0 no effect, 100 complete control
# [3] = Preemergence, 500 g ai/ha, 0 no effect, 100 complete control
# [4] = 62 g ai/ha, Preemergence, scale 0 to 100
# [5] = 125 g ai/ha, preemergence, scale 0 (no effect) to 100 (complete control)
# [6] = Preemergence, 31 g ai/ha, scale 0 to 100 (0 no effect, 100 complete control)
# [7] = preemergence, 250 g ai/ha, scale 0 (no effect) to 100 (complete control)
# [8] = Postemergence, 125 g ai/ha, scale 0 to 100, 0 no effect, 100 complete control
# [9] = Postemergence, 250 g ai/ha, scale 0 to 100, 0 no effect, 100 complete control
# [10] = Postemergence, 125 g ai/ha, 0 is no effect, 100 is complete control
# [11] = 31 g ai/ha, Preemergence, scale 0 to 100
# [12] = 62 g ai/ha, preemergence, scale 0 (no effect) to 100 (complete control)
# [13] = preemergence, 125 g ai/ha, scale 0 (no effect) to 100 (complete control)
Structure (SMILES),"Plant response rating, Barnyardgrass (barnyardgrass; Postemergence, 125 g ai/ha)",Barnyardgrass plant response rating (barnyardgrass; [1]),Barnyardgrass plant response rating (barnyardgrass; [2]),"Plant response rating, Velvetleaf (velvetleaf; Postemergence, 125 g ai/ha)",Velvetleaf plant response rating (velvetleaf; [1]),Velvetleaf plant response rating (velvetleaf; [2]),"Foxtail, Green plant response rating (green foxtail; [4])","Foxtail, Green plant response rating (green foxtail; [5])","Plant response rating, Foxtail, Green (green foxtail; [6])","Foxtail, Green plant response rating (green foxtail; [7])","Ryegrass, Italian plant response rating (Italian ryegrass; [4])","Ryegrass, Italian plant response rating (Italian ryegrass; [5])","Plant response rating, Ryegrass, Italian (Italian ryegrass; [6])","Ryegrass, Italian plant response rating (Italian ryegrass; [7])","Plant response rating, Barnyardgrass (barnyardgrass; Preemergence, 500 g ai/ha)","Plant response rating, Velvetleaf (velvetleaf; Preemergence, 500 g ai/ha)",Barnyardgrass plant response rating (barnyardgrass; [10]),Velvetleaf plant response rating (velvetleaf; [10]),"Foxtail, Green plant response rating (green foxtail; [11])","Foxtail, Green plant response rating (green foxtail; [12])",also measured
CC(C)c1cc[n+]([O-])c([S+]([O-])Cc2c(C(F)(F)F)nn(C)c2OC(F)F)c1 (stereo not drawn) [Compound 109],80,90,70,60,80,50,95,100,50,100,0,0,0,0,–,–,–,–,–,–,Barnyardgrass plant response rating (barnyardgrass; [3]): 100; Velvetleaf plant response rating (velvetleaf; [3]): 100
Cn1nc(C(F)(F)F)c(CS(=O)(=O)c2ccc(Cl)c[n+]2[O-])c1OCC(F)(F)F [Compound 73],70,80,90,0,50,0,70,100,70,–,10,60,0,98,90,60,–,–,–,–,–
CCn1nc(C(F)(F)F)c(C[S+]([O-])c2cccc[n+]2[O-])c1OCC(F)(F)F (racemic) [Compound 65],90,90,80,80,90,100,100,100,90,100,100,100,50,100,100,100,–,–,–,–,"Plant response rating (0 to 100), Foxtail, Green (green foxtail; Postemergence, 31 g ai/ha): 5; Plant response rating, Foxtail, Green (green foxtail; Postemergence, 62 g ai/ha, scale 0 to 100, 0 no effect, 100 complete control): 50; Plant response rating, Foxtail, Green (green foxtail; [8]): 80; Plant response rating, Foxtail, Green (green foxtail; [9]): 90; Plant response rating (0 to 100), Ryegrass, Italian (Italian ryegrass; Postemergence, 31 g ai/ha): 0; Plant response rating (0 to 100), Ryegrass, Italian (Italian ryegrass; Postemergence, 62 g ai/ha): 0; Plant response rating, Ryegrass, Italian (Italian ryegrass; [8]): 90; Plant response rating, Ryegrass, Italian (Italian ryegrass; [9]): 95"
CC(c1c(C(F)(F)F)nn(C)c1Cl)S(=O)(=O)c1cccc[n+]1[O-] (stereo not drawn) [Compound 10],–,90,100,–,30,60,–,–,–,–,–,–,–,–,100,60,80,0,70,85,"Plant response rating (0 to 100), Foxtail, Green (green foxtail; Preemergence, 250 g ai/ha): 100; Foxtail, Green plant response rating (green foxtail; [13]): 100; Ryegrass, Italian plant response rating (Italian ryegrass; [11]): 20; Ryegrass, Italian plant response rating (Italian ryegrass; [12]): 40; Plant response rating (0 to 100), Ryegrass, Italian (Italian ryegrass; Preemergence, 250 g ai/ha): 98; Ryegrass, Italian plant response rating (Italian ryegrass; [13]): 90"
Cn1nc(C(F)(F)F)c(CS(=O)(=O)c2cccc[n+]2[O-])c1Cl [Compound 9],–,80,100,–,30,50,–,–,–,–,–,–,–,–,100,60,80,0,85,100,"Plant response rating (0 to 100), Foxtail, Green (green foxtail; Preemergence, 250 g ai/ha): 100; Foxtail, Green plant response rating (green foxtail; [13]): 100; Ryegrass, Italian plant response rating (Italian ryegrass; [11]): 0; Ryegrass, Italian plant response rating (Italian ryegrass; [12]): 50; Plant response rating (0 to 100), Ryegrass, Italian (Italian ryegrass; Preemergence, 250 g ai/ha): 65; Ryegrass, Italian plant response rating (Italian ryegrass; [13]): 65"
